Data taken from patent US8946413B2 (Pfizer Inc., priority 2008, dated 2015).

biological target: T1, CCR2 (Homo sapiens, UniProt P41597); experiment: hCCR2 (125-I hMCP-1) small molecule binding assay on human PBMCs; settings: 125I-MCP-1, human PBMCs, 30 min preincubation; read-out: IC50 (nM) 30 min preinc
T1 construct: (leukophoresis pack); host or cells: human peripheral blood mononuclear cells (PBMCs) from a normal human leukophoresis pack
Procedure, shortened: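 Ficoll-isolated human PBMCs pre-incubated 30 min or 1 h with compound at 0.333 μM final (0.67% DMSO), then incubated 30 min at room temperature with 150 pM 125I-hMCP-1 in RPMI/0.1% BSA/20 mM HEPES. Filter-bound radioactivity counted by gamma counter. 100% inhibition defined with 1 μM hMCP-1; IC50 plates run n=2.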

T1 sequence (P41597 whole entry): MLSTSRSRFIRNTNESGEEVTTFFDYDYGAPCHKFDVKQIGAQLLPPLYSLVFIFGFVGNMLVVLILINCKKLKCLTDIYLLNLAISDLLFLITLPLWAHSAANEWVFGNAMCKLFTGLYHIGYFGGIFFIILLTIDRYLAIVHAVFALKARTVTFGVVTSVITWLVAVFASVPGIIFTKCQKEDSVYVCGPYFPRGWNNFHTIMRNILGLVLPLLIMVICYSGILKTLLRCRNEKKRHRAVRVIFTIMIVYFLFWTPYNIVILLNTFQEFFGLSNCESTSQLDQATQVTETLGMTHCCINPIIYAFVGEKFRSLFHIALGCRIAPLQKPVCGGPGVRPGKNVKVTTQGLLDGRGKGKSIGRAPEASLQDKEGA

| SMILES | IC50 [nM] |
| --- | --- |
| CO[C@@H]1COCC[C@@H]1N[C@@H]1CC[C@@](C(=O)N2C[C@@H]3C[C@H]2CN3c2ccnc(C(F)(F)F)n2)(C2(O)CCC2)C1 [Example 48, 1,5-anhydro-2,3-dideoxy-3-{[(1R,3S)-3-(1-hydroxycyclobutyl)-3-({(1S,4S)-5-[2-(trifluoromethyl)pyrimidin-4-yl]-2,5-diazabicyclo[2.2.1]hept-2-yl}carbonyl)cyclopentyl]amino}-4-O-methyl-D-erythro-pentitol] | 25.3 |
| CO[C@@H]1COCC[C@@H]1N[C@@H]1CC[C@@](C(=O)N2C[C@@H]3C[C@H]2CN3c2cc(C(F)(F)F)ncn2)(C2(O)CCC2)C1 [Example 49, 1,5-anhydro-2,3-dideoxy-3-{[(1R,3S)-3-(1-hydroxycyclobutyl)-3-({(1S,4S)-5-[6-(trifluoromethyl)pyrimidin-4-yl]-2,5-diazabicyclo[2.2.1]hept-2-yl}carbonyl)cyclopentyl]amino}-4-O-methyl-D-erythro-pentitol] | 35.8 |
| CO[C@@H]1COCC[C@@H]1N[C@@H]1CC[C@@](C(=O)N2C[C@@H]3C[C@H]2CN3c2cncc(C(F)(F)F)n2)(C2(O)CCC2)C1 [Example 50, 1,5-anhydro-2,3-dideoxy-3-{[(1R,3S)-3-(1-hydroxycyclobutyl)-3-({(1S,4S)-5-[6-(trifluoromethyl)pyrazin-2-yl]-2,5-diazabicyclo[2.2.1]hept-2-yl}carbonyl)cyclopentyl]amino}-4-O-methyl-D-erythro-pentitol] | 7.14 |
| CO[C@@H]1COCC[C@@H]1N[C@@H]1CC[C@@](C(=O)N2C[C@@H]3C[C@H]2CN3c2ccnc(C(F)(F)F)c2)(C2(O)CCC2)C1 [Example 51, 1,5-anhydro-2,3-dideoxy-3-{[(1R,3S)-3-(1-hydroxycyclobutyl)-3-({(1S,4S)-5-[2-(trifluoromethyl)pyridin-4-yl]-2,5-diazabicyclo[2.2.1]hept-2-yl}carbonyl)cyclopentyl]amino}-4-O-methyl-D-erythro-pentitol] | 22.8 |
| CO[C@@H]1COCC[C@@H]1N[C@@H]1CC[C@@](C(=O)N2C[C@@H]3C[C@H]2CN3c2cc(C(F)(F)F)ncn2)(C(C)(C)O)C1 [Example 53, 1,5-anhydro-2,3-dideoxy-3-{[3-(1-hydroxy-1-methylethyl)-3-({5-[6-(trifluoromethyl)pyrimidin-4-yl]-2,5-diazabicyclo[2.2.1]hept-2-yl}carbonyl)cyclopentyl]amino}-4-O-methylpentitol] | 27.6 |
| CO[C@@H]1COCC[C@@H]1N[C@@H]1CC[C@@](C(=O)N2C[C@@H]3C[C@H]2CN3c2cc(C(F)(F)F)cnn2)(C(C)(C)O)C1 [Example 55, 1,5-anhydro-2,3-dideoxy-3-{[3-(1-hydroxy-1-methylethyl)-3-({5-[5-(trifluoromethyl)pyridazin-3-yl]-2,5-diazabicyclo[2.2.1]hept-2-yl}carbonyl)cyclopentyl]amino}-4-O-methylpentitol] | 28.3 |

Other lines, results leading:

| IC50 [nM] | SMILES |
| --- | --- |
| 5.4 | CO[C@@H]1COCC[C@@H]1N[C@@H]1CC[C@@](C(=O)N2C[C@@H]3C[C@H]2CN3c2cc(C(F)(F)F)ccn2)(C(C)(C)O)C1 [Example 52, 1,5-anhydro-2,3-dideoxy-3-{[3-(1-hydroxy-1-methylethyl)-3-({5-[4-(trifluoromethyl)pyridin-2-yl]-2,5-diazabicyclo[2.2.1]hept-2-yl}carbonyl)cyclopentyl]amino}-4-O-methylpentitol] |
| 8.46 | CO[C@@H]1COCC[C@@H]1N[C@@H]1CC[C@@](C(=O)N2C[C@@H]3C[C@H]2CN3c2nccc(C(F)(F)F)n2)(C(C)(C)O)C1 [Example 54] |
| 32.8 | CO[C@@H]1COCC[C@@H]1N[C@@H]1CC[C@@](C(=O)N2C[C@@H]3C[C@H]2CN3c2ccnc(C(F)(F)F)n2)(C(C)(C)O)C1 [Example 56, 1,5-anhydro-2,3-dideoxy-3-{[3-(1-hydroxy-1-methylethyl)-3-({5-[2-(trifluoromethyl)pyrimidin-4-yl]-2,5-diazabicyclo[2.2.1]hept-2-yl}carbonyl)cyclopentyl]amino}-4-O-methylpentitol] |
